The text below walks through data of ChEMBL document CHEMBL3734756, “Novel -carbolinequinazolinone hybrid as an inhibitor of Leishmania donovani trypanothione reductase: Synthesis, molecular docking and bioevaluation” (Medchemcomm, 2015).

Active and inactive are the calls of the source. The calls are words filed in the database; no cut-off is given here.

For data set [1], the target named is Trypanothione reductase (Leishmania donovani) (UniProt P39050). The data set can be described thus: Inhibition of recombinant Leishmania donovani trypanothione reductase expressed in Escherichia coli BL21 (DE3) using trypanothione disulphide as substrate at 50 uM preincubated for 5 mins followed by substrate addition by microplate reader analysis relative to control.

Data set [2] shares this target. The experiment in a line: Inhibition of recombinant Leishmania donovani trypanothione reductase expressed in Escherichia coli BL21 (DE3) using trypanothione disulphide as substrate at 100 uM preincubated for 5 mins followed by substrate addition by microplate reader analysis relative to control.
Another data set relates to Vero. The data set can be described thus: (§1) Selectivity index, ratio of CC50 for African green monkey Vero cells to IC50 for amastigote stage of Leishmania donovani infected in mouse J774A.1 cells. It counts as functional.
A short description of data set [3]: as §1. In kind it is functional.
Data set [4] concerns Leishmania donovani. The experiment in a line: Antileishmanial activity against amastigote stage of Leishmania donovani infected in mouse J774A.1 cells after 72 hrs by luciferase reporter gene assay. The settings on record: J774.A1, 72 h. In kind it is functional, organism-based.
Data set [5] deals with Leishmania donovani. The data set can be described thus: Antileishmanial activity against extracellular promastigote stage of Leishmania donovani after 96 hrs by luciferase reporter gene assay. In kind it is functional, organism-based.
The nature of data set [6]: Cytotoxicity against African green monkey Vero cells assessed as cell viability after 72 hrs by MTT assay. In kind it is cell-based. The following applies: chlorocebus sabaeus.
A further data set has as its target Trypanothione reductase (Leishmania donovani, UniProt P39050). The experiment in a line: Competitive inhibition of recombinant Leishmania donovani trypanothione reductase expressed in Escherichia coli BL21 (DE3) by Dixon plot analysis in presence of trypanothione disulphide.

Trypanothione reductase (Leishmania donovani), sequence (P39050 whole entry): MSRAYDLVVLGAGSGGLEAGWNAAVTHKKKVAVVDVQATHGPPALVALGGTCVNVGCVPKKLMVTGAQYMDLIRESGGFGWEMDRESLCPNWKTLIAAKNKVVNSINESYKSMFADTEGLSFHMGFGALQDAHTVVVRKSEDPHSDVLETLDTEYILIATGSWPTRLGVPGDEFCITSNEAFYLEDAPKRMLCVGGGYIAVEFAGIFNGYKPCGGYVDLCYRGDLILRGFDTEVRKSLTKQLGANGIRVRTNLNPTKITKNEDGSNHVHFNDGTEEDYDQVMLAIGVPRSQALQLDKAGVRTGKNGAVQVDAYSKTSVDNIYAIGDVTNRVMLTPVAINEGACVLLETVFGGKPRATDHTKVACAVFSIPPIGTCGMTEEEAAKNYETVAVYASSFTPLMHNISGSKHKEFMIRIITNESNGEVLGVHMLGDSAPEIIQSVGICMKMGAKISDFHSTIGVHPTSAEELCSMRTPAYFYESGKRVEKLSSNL
Trypanothione reductase, sequence (P39050 whole entry): as above

Take `COC(=O)c1cc2c([nH]c3ccccc32)c(C2Nc3ccccc3C(=O)N2C2CCCCC2)n1` (stereo unspecified): the inhibition result in data set [1] is “inactive”. Also, the inhibition in data set [2] is 1%.
Turning to `COC(=O)c1cc2c([nH]c3ccccc32)c(C2Nc3ccccc3C(=O)N2C2CCCCCC2)n1` (stereo unspecified), the inhibition entry in data set [1] and in data set [2] was “inactive” in each case.
On to sodium stibogluconate, for which, in the data set with Vero, the Ratio CC50/IC50 came out at 7.
Turning to `CCCN1C(=O)c2ccccc2NC1c1nc(C(=O)OC)cc2c1[nH]c1ccccc12` (stereo unspecified), the results for the inhibition in data set [1] and in data set [2] were 7% and 9%, respectively.
As to `CCCCCCCCCCCCCCCCOP(=O)([O-])OCC[N+](C)(C)C` [MILTEFOSINE], in data set [3], the “Ratio CC50/IC50” value is reported as 7. Moreover, the IC50 in the data set with Leishmania donovani [4] stood at 8.1 µM; in the data set on Leishmania donovani [5], 1.2 µM. In addition, in data set [6], the cytotoxic concentration (CC50) at 72 h was 56.5 µM.
With `COC(=O)c1cc2c([nH]c3ccccc32)c(C2Nc3ccccc3C(=O)N2Cc2ccc(Cl)c(Cl)c2)n1` (stereo unspecified), the inhibition in data set [1] stood at 77%; in data set [2], 85%. Moreover, in data set [3], the “Ratio CC50/IC50” value is recorded as 24. In addition, the values for the concentration for half-maximal inhibition (IC50) in the data set with Leishmania donovani [4] and in the data set with Leishmania donovani [5] were 4.3 µM and 4.8 µM, respectively. For the same compound, the CC50 at 72 h in data set [6] is 104 µM. Moreover, the inhibitory constant (Ki) on Trypanothione reductase is 3.7 µM.
As for `COC(=O)c1cc2c([nH]c3ccccc32)c(C2Nc3ccccc3C(=O)N2c2ccc(Cl)cc2)n1` (stereo unspecified), the values for the inhibition in data set [1] and in data set [2] were 64% and 67%, respectively. Further, the “Ratio CC50/IC50” value in data set [3] was more than 91. The IC50 is 4.4 µM with Leishmania donovani [4] and 3.3 µM with Leishmania donovani [5]. In addition, in data set [6], the CC50 at 72 h was more than 400 µM. Besides, the inhibition constant Ki on Trypanothione reductase is 7.2 µM.
In the case of `COC(=O)c1cc2c([nH]c3ccccc32)c(C2Nc3ccccc3C(=O)N2Cc2ccc(OC)cc2)n1` (stereo unspecified), the inhibition in data set [1] amounted to 56%; in data set [2], 60%. Also, the “Ratio CC50/IC50” value in data set [3] was 3. Moreover, the IC50 in the data set on Leishmania donovani [4] worked out at 35.2 µM; with Leishmania donovani [5], 5.4 µM. Moreover, the CC50 at 72 h in data set [6] turned out to be 106 µM. On Trypanothione reductase, the Ki came to 9.2 µM.
For the compound `COC(=O)c1cc2c([nH]c3ccccc32)c(C2Nc3ccccc3C(=O)N2c2ccccc2)n1` (stereo unspecified), the inhibition came to 16% in data set [1] and 18% in data set [2].
Turning to `COC(=O)c1cc2c([nH]c3ccccc32)c(C2Nc3ccccc3C(=O)N2Cc2ccccc2)n1` (stereo unspecified), the results for the inhibition in data set [1] and in data set [2] were 6% and 11%, respectively.
The corresponding values for `COC(=O)c1cc2c([nH]c3ccccc32)c(C2Nc3ccccc3C(=O)N2C2CC2)n1` (stereo unspecified) are “inactive” and “inactive”.
As for `CCCCCN1C(=O)c2ccccc2NC1c1nc(C(=O)OC)cc2c1[nH]c1ccccc12` (stereo unspecified), the inhibition in data set [1] was found to be 90%; in data set [2], 99%. Further, the IC50 with Leishmania donovani [4] is more than 40 µM; in the data set with Leishmania donovani [5], 9.9 µM. In addition, the Ki on Trypanothione reductase was determined as 0.8 µM.
`COC(=O)c1cc2c([nH]c3ccccc32)c(C2Nc3ccccc3C(=O)N2c2ccc(OC)cc2)n1` (stereo unspecified): the inhibition result in data set [1] and in data set [2] was “inactive” throughout.
With `COC(=O)c1cc2c([nH]c3ccccc32)c(C2Nc3ccccc3C(=O)N2c2ccc(F)cc2)n1` (stereo unspecified), the inhibition is 81% in data set [1] and 96% in data set [2]. In addition, the “Ratio CC50/IC50” value in data set [3] is 36. The IC50 in the data set with Leishmania donovani [4] turned out to be 6 µM; in the data set on Leishmania donovani [5] it was 4.6 µM. In addition, in data set [6], the cytotoxic concentration (CC50) at 72 h stood at 217 µM. The inhibitory constant (Ki) at Trypanothione reductase turned out to be 3.9 µM.
With `CCN1C(=O)c2ccccc2NC1c1nc(C(=O)OC)cc2c1[nH]c1ccccc12` (stereo unspecified), the figures for the inhibition in data set [1] and in data set [2] were 58% and 75%, respectively. The IC50 in the data set on Leishmania donovani [4] was more than 40 µM; with Leishmania donovani [5] it was 8.5 µM. In addition, on Trypanothione reductase, the Ki was found to be 6.5 µM.
Consider `CCCCN1C(=O)c2ccccc2NC1c1nc(C(=O)OC)cc2c1[nH]c1ccccc12` (stereo unspecified), for which the figures for the inhibition in data set [1] and in data set [2] were 28% and 35%, respectively.
`COC(=O)c1cc2c([nH]c3ccccc32)c(C2Nc3ccccc3C(=O)N2C2CCCC2)n1` (stereo unspecified): the inhibition in data set [1] turned out to be 20%; in data set [2], 30%.
